Literature values as cited in patent US20150005255A1, “COSMETIC COMPOSITION, FORMULATION IN GEL-CREAM AND ITS USE” (EMS S.A., priority 2013, published 2015).

What was measured:
lysosomal enzymes = conditions: in skin care products

Row | Substance | volume of observed areas with cellulite (localized lipodystrophy; formula of Xantalgosil C applied twice daily for one month, 25 volunteers) | activation of adipocyte lipolysis (localized lipodystrophy; in vivo) | reduction of lysosomal activity (lysosomal enzymes)
1 | acefylline methylsilanol mannuronate [Xantalgosil C] | reduction of volume in observed areas | outstanding action | –
2 | Escin | – | – | up to 30%
